From ChEMBL document CHEMBL1132059, “Antitumor agents 187: synthesis and cytotoxicity of substituted 8,8-dimethyl-2H,8H-pyrano[6,5-h]quinoline-2-one and related compounds” (1999)
Converted amounts (≈) assume the structure as drawn. The source made the active and inactive calls. No cut-off for these calls is given here.

Columns and labels:
HCT-8 [1] = assay: Cytotoxic activity against human ileocecal carcinoma (HCT-8) cell line; format: functional; settings: read-out: ED50 (the source's name)
KB = assay: Cytotoxic activity against human epidermoid carcinoma of the nasopharynx (KB) cell line; format: functional; settings: read-out: ED50 (the source's name)
CAKI-1 [2] = assay: Cytotoxic activity against human renal cancer (CAKI-1) cell line; format: functional; settings: read-out: ED50 (the source's name)
A549 = assay: Cytotoxic activity against human lung carcinoma (A-549) cell line; format: functional; settings: read-out: ED50 (the source's name)
MCF7 = assay: Cytotoxic activity against human breast cancer (MCF-7) cell line; format: functional; settings: read-out: ED50 (the source's name)
1A9 = assay: Cytotoxic activity against human ovarian cancer (1A9) cell line; format: functional; settings: read-out: ED50 (the source's name)
HCT-116 = assay: Compound was tested for in vitro growth inhibition of human colon cancer HCT116 cell line; format: functional
COLO 205 = assay: Compound was tested for in vitro growth inhibition of human colon cancer COLO 205 cell line; format: functional
SK-MEL-28 = assay: Compound was tested for in vitro growth inhibition of human melanoma SK-MEL-28 cell line; format: functional
OVCAR-3 = assay: Compound was tested for in vitro growth inhibition of human ovarian cancer OVCAR-3 cell line; format: functional
NCI-H226 = assay: Compound was tested for in vitro growth inhibition of human non-small cell lung cancer cell line NCI-H226; format: functional
MDA-MB-435 = assay: Compound was tested for in vitro growth inhibition of human breast cancer MDA-MB-435 cell line; format: functional
SF-295 = assay: Compound was tested for in vitro growth inhibition of human […] SF-295 cell line; format: functional
HL-60 = assay: Compound was tested for in vitro growth inhibition of human leukemia cell line HL60; format: functional
PD-145 = assay: Compound was tested for in vitro growth inhibition of human prostate cancer PD-145 cell line; format: functional
CAKI-1 [3] = assay: Compound was tested for in vitro growth inhibition of human […] cancer CAKI-1 cell line; format: functional
HCT-8 [4] = assay: Cytotoxic activity against human ileocecal carcinoma (HCT-8) cell line; NA=Not active; format: functional, cell-based
CAKI-1 [5] = assay: Cytotoxic activity against human renal cancer (CAKI-1) cell line; NA=Not active; format: functional, cell-based

SMILES	EC50 (HCT-8 [1]) [µg/mL]	EC50 (KB) [µg/mL]	EC50 (CAKI-1 [2]) [µg/mL]	EC50 (A549) [µg/mL]	EC50 (MCF7) [µg/mL]	EC50 (1A9) [µg/mL]	GI50 (HCT-116) [µM]	GI50 (COLO 205) [µM]	GI50 (SK-MEL-28) [µM]	GI50 (OVCAR-3) [µM]	GI50 (NCI-H226) [µM]	GI50 (MDA-MB-435) [µM]	GI50 (SF-295) [µM]	GI50 (HL-60) [µM]	GI50 (PD-145) [µM]	GI50 (CAKI-1 [3]) [µM]	ED50 (HCT-8 [4])	ED50 (CAKI-1 [5])
Cc1c(O)nc2c3c(ccc2c1C)OC(C)(C)C=C3	32 (≈ 125 µM)	23 (≈ 90.1 µM)	35.5 (≈ 139 µM)	25 (≈ 97.9 µM)	19 (≈ 74.4 µM)													
CC1(C)C=Cc2c(ccc3c(-c4ccccc4)cc(O)nc23)O1	28 (≈ 92.3 µM)	> 40	> 40	36.3 (≈ 120 µM)	30 (≈ 98.9 µM)	10 (≈ 33 µM)												
Cc1cc(O)nc2c3c(ccc12)OC(C)(C)C=C3	1.7 (≈ 7.05 µM)	1.6 (≈ 6.63 µM)	2.5 (≈ 10.4 µM)	2.2 (≈ 9.12 µM)	1.7 (≈ 7.05 µM)		4.9	2.75	> 100	6.03	> 100	1.74	30.2	0.427	3.63	6.17		
CC1(C)C=Cc2c(ccc3ccc(O)nc23)O1	19.3 (≈ 84.9 µM)	13.1 (≈ 57.6 µM)	> 40	18 (≈ 79.2 µM)	14.7 (≈ 64.7 µM)	5.8 (≈ 25.5 µM)												
Cc1cc2c(C)c(C)c(O)nc2c2c1OC(C)(C)C=C2	41 (≈ 152 µM)	37 (≈ 137 µM)	43 (≈ 160 µM)	41 (≈ 152 µM)	38 (≈ 141 µM)													
CCCc1cc(O)nc2c3c(ccc12)OC(C)(C)C=C3		> 40		> 40	> 40	> 40											inactive	inactive
Cc1cc(S)nc2c3c(ccc12)OC(C)(C)C=C3	28.8 (≈ 112 µM)	23 (≈ 89.4 µM)		30.3 (≈ 118 µM)	13.8 (≈ 53.6 µM)	12 (≈ 46.6 µM)												inactive
Cc1cc(=O)n(C(=O)OC(C)(C)C)c2c3c(ccc12)OC(C)(C)C=C3	3.6 (≈ 10.5 µM)	2.5 (≈ 7.32 µM)	4.5 (≈ 13.2 µM)	4.3 (≈ 12.6 µM)	2.4 (≈ 7.03 µM)													
